From ChEMBL document CHEMBL1765054 (J Med Chem, 2011)

Legend:
Assay type in all cases: ADME, organism-based
[1] = Cmax in C57BL/6 mouse at 1 mg/kg, iv; design: dose 1 mg/kg, route intravenous; conditions: in vivo
[2] = system: Mus musculus; test: Bioavailability in C57BL/6 mouse at 10 mg/kg; conditions: in vivo
[3] = AUC in C57BL/6 mouse at 10 mg/kg, po; design: dose 10 mg/kg, route oral; conditions: plasma
[4] = Cmax in C57BL/6 mouse at 10 mg/kg, po; design: dose 10 mg/kg, route oral; conditions: in vivo
[5] = Tmax in C57BL/6 mouse at 10 mg/kg, po; design: dose 10 mg/kg, route oral; conditions: in vivo
[6] = Volume of distribution at steady state in C57BL/6 mouse at 1 mg/kg, iv; design: dose 1 mg/kg, route intravenous; conditions: in vivo, read-out: Vdss

Row | SMILES | Cmax [1] [ng/mL] | F [2] [%] | AUC [3] [ng·h/mL] | Cmax [4] [ng/mL] | Tmax [5] [min] | Vd [6] [L/kg]
1 | Nc1ccc(-c2ccc3ncc4ccc(=O)n(-c5cccc(C(F)(F)F)c5)c4c3c2)cn1 | 1540 | 51 | 4310 | 3970 | – | –
2 | O=c1ccc2cnc3ccc(-c4cnc5[nH]ccc5c4)cc3c2n1-c1ccc(F)c(C(F)(F)F)c1 | 1640 | 4.2 | 352 | 98 | 60 | 1.3

Next, values leading:

Row | Cmax [1] [ng/mL] | F [2] [%] | AUC [3] [ng·h/mL] | Cmax [4] [ng/mL] | Tmax [5] [min] | Vd [6] [L/kg] | SMILES
3 | – | 19.2 | 755 | 430 | 30 | 2.42 | O=c1ccc2cnc3ccc(-c4cn[nH]c4)cc3c2n1-c1ccc(F)c(C(F)(F)F)c1
4 | 1040 | 21.6 | 2410 | 853 | 30 | 1.16 | Cc1cc(-n2c(=O)ccc3cnc4ccc(-c5cn[nH]c5)cc4c32)ccc1F
5 | – | 28 | 2070 | 1040 | 30 | 1.08 | Cc1cc(-n2c(=O)ccc3cnc4ccc(-c5cnn(C)c5)cc4c32)ccc1F
